Measured values published in patent US8404803B2, “Cancer-associated antigen analogue peptides and uses thereof” (Chugai Seiyaku Kabushiki Kaisha, priority 2005, dated 2013).

Tests used:
Format in all cases: cell-based, human
[1] = test system: CD4-positive/IL-4-producing T cells; experiment: Flow cytometry detection of CD4-positive/IL-4-positive T cells in peptide-stimulated mononuclear cell samples; conditions: for CD4+ IL-4+ number of positive samples/tested samples: mononuclear cell samples cultured 48 hours with peptide and IL-2; for CD4+ IL-4+ number of positive samples/tested samples / CD4+ IL-4+ number of positive samples/tested samples × 100 (%): positive sample > mean of control + 2 × SD (OVCA10-MNC group, 1.148%)
Protocol: (§1) All operations concerning cell culture were performed aseptically. First, human peripheral mononuclear cell fractions (comprising T cells, B cells, macrophages and such; hereinafter referred to as “mononuclear cell samples”) were prepared from the blood samples by density gradient centrifugation. Next, these mononuclear cells were suspended at 1×10^5 cell/ml in complete media having the following composition: • Complete Medium: RPMI1640 culture medium (Gibco Laboratories Inc., Grand Island, N.Y.) to which 10% fetal bovine serum (Cell Culture Laboratories, Cleveland, Ohio), 0.2 mM L-glutamine, 100 U/mL penicillin, 100 μg/mL streptomycin (Gibco Laboratories Inc.), and 0.2 ng/mL recombinant human IL-2 (Dainippon Pharmaceutical Co., Tokyo, Japan) have been mixed.
(§2) Theses mononuclear cell samples were placed still in V-bottomed 96-well tissue culture plastic plates (Flow Laboratories Inc., Horsham, Pa.) in the presence and absence of peptides, and cultured for 48 hours at 37° C. in a CO2 culture apparatus (Sanyo Medica, Osaka, Japan).
(§3) A number of mouse-derived anti-human specific monoclonal antibodies with different fluorescences (hereinafter referred to as ‘monoclonal antibodies’) were used to simultaneously analyze by double-staining the CD markers CD4 and CD8, which are on the T cell membranes, and the cytokines within the T cells. As the monoclonal antibodies, products labeled with either fluorescent substance phycoerythrin (hereinafter ‘PE’) or fluorescein isothiocyanate (hereinafter ‘FITC’) were used (Miltenyi Biotec, Glandbach, Germany). For detection, a flow cytometry apparatus FACScan (Becton Dickinson) was used to measure the frequency of cells to which the monoclonal antibodies had bound. Positive cells are automatically detected by the flow cytometry apparatus.
(§4) Since positive cells cannot be identified after the cytokines have been secreted to the outside of the cells, detection was performed at a stage where the cytokines are inside the cells. Therefore, the Cytofix/Cytoperm Kit (Pharmingen, San Diego, Calif.) was used for the analysis, using methods recommended by the manufacturer and a positive control for detection recommended by the kit (Prussin C, Metcalfe D, Detection of intracytoplasmic cytokine using flow cytometry and directly conjugated anti-cytokine antibodies, J Immunol Meth. 188: 117-128, 1995). Specifically, brefeldin A (Pharmingen, San Diego, Calif.) was added at 0.7 μl/1 ml/well to stop protein production in the Golgi apparatus, and the peptide-stimulated mononuclear cell samples were treated at 37° C. for two hours. Next, the culture plates were placed on ice and the reaction was stopped by adding physiological saline at 4° C. The mononuclear cell samples were transferred into 15 ml tubes as though by washing with the physiological saline at 4° C., and were then centrifuged at 1600 rpm for ten minutes to remove the supernatant.
(§5) First, to dye CD4s on the cell surface, 10 μl of FITC-labeled mouse anti-human CD4 was added, with CD8 monoclonal antibody as a control, and this was reacted at 4° C. for 30 minutes. The cells were then separated with 0.5% bovine serum albumin/physiological saline at 4° C., then 0.5% bovine serum albumin/physiological saline at 4° C. was added thereto, and this was centrifuged at 1600 rpm for ten minutes at 4° C. to remove the supernatant.
(§6) Next, the mononuclear cell samples were fixed and their cell membranes were permeabilized. The cells were suspended in 250 μl of Cytofix/Cytoperm (Pharmingen) solution and reacted at 4° C. for 20 minutes. 10 μl of the aforementioned fluorescently labeled anti-IFNγ monoclonal antibody or anti-IL-4 monoclonal antibody was added to these mononuclear cell samples and reacted at 4° C. for 30 minutes. Then, the cells were separated by adding 0.5% bovine serum albumin/physiological saline at 4° C., and 0.5% BSA/PBS at 4° C. was further added thereto. After centrifugation at 1600 rpm for ten minutes at 4° C., the supernatant was removed. […]

[2] = test system: CD4-positive/TNFα-positive T cells; experiment: Flow cytometry detection of CD4 and TNFα in OVCA11-stimulated T cells; conditions: typical example, FIG. 12; after OVCA11 stimulation (0.44% before)
Source text: as §3
(§7) Since positive cells cannot be identified after the cytokines have been secreted to the outside of the cells, detection was performed at a stage where the cytokines are inside the cells. […]
(§8) T cells activated in an antigen-specific manner are known to produce tumor necrosis factor α (TNFα) when they injure target cells, such as tumor cells. Therefore, the OVCA11-stimulated T cells obtained in [Example 3] were analyzed by flow cytometry to determine whether they indeed produced TNFα, using a similar method to [Example 3] and combinations of CD4 and TNFα, and CD8 and TNFα.

[3] = test system: CD4-positive/IFNγ-producing T cells; experiment: Flow cytometry detection of CD4-positive/IFNγ-positive T cells in peptide-stimulated mononuclear cell samples; conditions: for CD4+ IFNγ+ number of positive samples/tested samples: mononuclear cell samples cultured 48 hours with peptide and IL-2; for CD4+ IFNγ+ number of positive samples/tested samples / CD4+ IFNγ+ number of positive samples/tested samples × 100 (%): positive sample > mean of control + 2 × SD (OVCA10-MNC group, 1.378%)
Protocol: as §1, §2, §3, §4, §5, §6

[4] = test system: CD8-positive/TNFα-positive T cells; experiment: Flow cytometry detection of CD8 and TNFα in OVCA11-stimulated T cells; conditions: typical example, FIG. 12; after OVCA11 stimulation (0.28% before)
Source text: as §3, §7, §8

CD4-positive T cells = experiment: Analysis of the CD4-positive T cell epitope (T cells positive for IL-4 or IFNγ); conditions: peptides with ten amino acid residues reproducing the MUC16 primary sequence
Protocol: The results were recorded as: number of double staining-positive cells/total number of counted mononuclear cells ×100=positive cell frequency (%). Furthermore, peptide antigen-specific T cell reactions were determined to be positive when the individual frequencies of positive cells in the mononuclear cell samples were the same as or greater than the mean plus two standard deviations (mean+2SD) of the negative control group, where the negative control was a mononuclear cell sample group that had been stimulated with analogue peptide (OVCA10 stimulation). In addition, each of the peptide-stimulated groups were compared by using t-tests to measure the significant difference.
Next, to determine the T cell epitope (based not on the analogues but on the original sequence), the present inventors went back to the original amino acid sequence of the 11-times repeat sequences of MUC16 from which the 30 amino acid residue sequence: […] (SEQ ID NO: 45) common to OVCA11 and OVCA12 was derived. Furthermore, the sequence was divided into lots of ten amino acid residues to prepare OVCA101 (SEQ ID NO: 4), 102 (SEQ ID NO: 5), 103 (SEQ ID NO: 6), 104 (SEQ ID NO: 7), 105 (SEQ ID NO: 8), 106 (SEQ ID NO: 9), 107 (SEQ ID NO: 2), 108 (SEQ ID NO: 3), 109, 110, 111, 112, 113, 114, 115 (SEQ ID NO: 10) (FIG. 5), and T cells positive for IL-4 or IFNγ were detected using a method similar to the above.

GHTAPGPLLVPFTLNFTITN (listed as Homo sapiens) [OVCA11]
frequency of CD4-positive/IL-4-producing T cells compared to groups to which OVCA10 was added ([1]; FIG. 8, peptide 15 μM, statistically significant difference): higher | frequency of CD4-positive/IL-4-positive cells, mean±standard deviation ([1]; all the analyzed mononuclear cell samples (FIG. 8), peptide 15 μM): 4.314±2.805% | average number of IL-4-positive cells ([1]; healthy group): 4.89% | CD4+ IL-4+ number of positive samples/tested samples [1]: 27/32 | CD4+ IL-4+ number of positive samples/tested samples ([1]; listed as OVCA 11): 27 of the 32 | average number of IL-4-positive cells ([1]; patient group): 4.12% | CD4+ IL-4+ number of positive samples/tested samples × 100 (%) [1]: 84.4% | CD4+ IL-4+ number of positive samples/tested samples × 100 (%) ([1]; listed as OVCA 11): 84.4% | frequency of CD4-positive/IL-4-positive T cells ([1]; typical example of flow cytometry, FIGS. 6 and 7, IL-2 and analogue peptide added): 7.06% | frequency of CD4-positive/TNFα-positive T cells [2]: 5.76% | frequency of CD4-positive/IFNγ-producing T cells compared to groups to which OVCA10 was added ([3]; FIG. 11, peptide 15 μM, statistically significant difference): higher | frequency of CD4-positive/INFγ-positive cells, mean±standard deviation ([3]; all of the analyzed mononuclear cell samples (FIG. 11), peptide 15 μM): 3.037±2.234% | average number of IFNγ-positive cells ([3]; healthy group): 3.48% | CD4+ IFNγ+ number of positive samples/tested samples [3]: 26/33 | CD4+ IFNγ+ number of positive samples/tested samples ([3]; listed as OVCA 11): 26 of the 33 | average number of IFNγ-positive cells ([3]; patient group): 2.85% | CD4+ IFNγ+ number of positive samples/tested samples × 100 (%) [3]: 78.8% | CD4+ IFNγ+ number of positive samples/tested samples × 100 (%) ([3]; listed as OVCA 11): 78.8% | frequency of CD4-positive/IFNγ-positive T cells ([3]; typical example of flow cytometry, FIGS. 9 and 10, IL-2 and analogue peptide added): 3.12% | frequency of CD8-positive/TNFα-positive T cells [4]: 3.98%

PFTLNFTITN (listed as Homo sapiens) [OVCA107]
frequency of CD4-positive/IL-4-producing T cells at the time of epitope determination ([1]; FIG. 14, peptide 15 μM): High frequency cases could be detected | CD4-positive/IL-4-positive frequencies, mean ± standard deviation ([1]; epitope determination, patient's mononuclear cell samples (FIG. 14), peptide 15 μM): 8.036±12.870% | CD4+ IL-4+ number of positive samples/tested samples [1]: 5/9 | CD4+ IL-4+ number of positive samples/tested samples × 100 (%) [1]: 55.6% | frequency of CD4-positive/IL-4-positive T cells at the time of epitope determination ([1]; typical example of flow cytometry, FIG. 13, IL-2 and peptide added): 6.32% | frequency of CD4-positive/IFNγ-producing T cells at the time of epitope determination ([3]; FIG. 16, peptide 15 μM): High frequency cases could be detected | CD4-positive/IFNγ expression-positive frequencies, mean ± standard deviation ([3]; epitope determination, patient's mononuclear cell samples (FIG. 16), peptide 15 μM): 7.626±12.448% | CD4+ IFNγ+ number of positive samples/tested samples [3]: 3/8 | CD4+ IFNγ+ number of positive samples/tested samples × 100 (%) [3]: 37.5% | frequency of CD4-positive/IFNγ-positive T cells at the time of epitope determination ([3]; typical example of flow cytometry, FIG. 15, IL-2 and peptide added): 2.10% | recognized by CD4-positive T cells (CD4-positive T cells): recognized by CD4-positive T cells
